According to patent US9822147B2, “Methods of treating ophthalmic diseases using NPR-B agonists” (priority 2009, dated 2017):
Numbered stars: 1 amine (or outer) side, 2 acyl side, 3 side chain; on linkers, the order of the positions; unused ones are H or OH. Square brackets hold non-standard residues; d marks the D form. Peptide text beside a SMILES is read from it. * marks the point of attachment. Phe(3,4-Cl2) = N[C@@H](Cc1ccc(Cl)c(Cl)c1)C(=O)O; Phe(3-CF3) = N[C@@H](Cc1cccc(C(F)(F)F)c1)C(=O)O; X3 = NCCN[C@@H]1C[C@@H](C(=O)[*:2])N([*:1])C1; X12 = CC(C)(C)CNC[C@@H](N[*:1])C(=O)[*:2]; Pro(4R-NH2) = N[C@H]1CN[C@H](C(=O)O)C1; dOrn(Me2) = CN(C)CCC[C@@H](N)C(=O)O; X2 = O=C([C@H]1CCCN([*:1])C1)[*:2]; X1 = CCCCCCCCN1CCC[C@H](C(=O)*)C1; Hyp = O=C(O)[C@@H]1C[C@@H](O)CN1; NHcycloheptyl = C1CCCC(N*)CC1; NMeL = CN[C@@H](CC(C)C)C(=O)O; dOrn = NCCC[C@@H](N)C(=O)O; X6 = C[C@@H]1CCCC[C@H]1N*; Ac6c = NC1(C(=O)O)CCCCC1; Octanoyl = CCCCCCCC(=O)*; Api = NC1(C(=O)O)CCNCC1

Target: T1, NPR-B (Homo sapiens, UniProt P20594)
T1 construct: a functional assay using endogenously NPR-B expressing GTM-3 cells; endogenous in cells; host or cells: GTM-3 (human glaucoma trabecular meshwork cells)
T1 sequence (P20594 23-1047): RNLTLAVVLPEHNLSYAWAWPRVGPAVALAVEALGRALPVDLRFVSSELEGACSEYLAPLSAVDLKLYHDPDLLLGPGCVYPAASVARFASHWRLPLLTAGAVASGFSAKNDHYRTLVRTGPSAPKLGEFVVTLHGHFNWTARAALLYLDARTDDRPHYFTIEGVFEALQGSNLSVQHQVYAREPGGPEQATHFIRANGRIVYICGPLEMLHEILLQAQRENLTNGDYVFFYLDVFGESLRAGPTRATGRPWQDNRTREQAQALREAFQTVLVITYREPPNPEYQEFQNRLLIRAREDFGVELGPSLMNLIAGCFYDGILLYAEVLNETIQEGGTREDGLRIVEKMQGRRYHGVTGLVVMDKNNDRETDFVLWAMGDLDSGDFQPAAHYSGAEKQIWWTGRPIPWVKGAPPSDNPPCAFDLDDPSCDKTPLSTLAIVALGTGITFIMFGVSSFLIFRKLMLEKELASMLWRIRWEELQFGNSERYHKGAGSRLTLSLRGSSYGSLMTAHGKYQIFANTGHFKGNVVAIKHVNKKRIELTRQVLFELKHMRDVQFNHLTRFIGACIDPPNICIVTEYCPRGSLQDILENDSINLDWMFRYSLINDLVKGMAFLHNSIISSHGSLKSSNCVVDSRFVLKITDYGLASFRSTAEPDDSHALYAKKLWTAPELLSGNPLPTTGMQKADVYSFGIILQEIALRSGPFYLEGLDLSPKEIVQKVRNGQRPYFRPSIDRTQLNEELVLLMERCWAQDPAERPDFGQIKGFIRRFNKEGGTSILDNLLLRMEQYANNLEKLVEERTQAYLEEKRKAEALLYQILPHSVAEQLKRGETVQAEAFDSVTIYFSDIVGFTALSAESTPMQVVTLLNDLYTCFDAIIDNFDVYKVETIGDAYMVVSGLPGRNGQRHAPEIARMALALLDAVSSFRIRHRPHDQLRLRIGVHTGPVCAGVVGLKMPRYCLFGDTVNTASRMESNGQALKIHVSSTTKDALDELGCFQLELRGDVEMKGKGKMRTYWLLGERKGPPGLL
Assay: NPR-B induced production of cyclic GMP in human glaucoma trabecular meshwork cells (GTM-3)
Type: cell-based
Conditions: group by EC50 and Emax (CNP = 100%); Table 4; read-out: Activity (group), NPR-B activation assayed with GTM-3 cells

| SMILES | EC50 |
| --- | --- |
| CCCCCCCC(=O)N1CCC[C@H](C(=O)N[C@@H](Cc2ccccc2)C(=O)N[C@H](CCCNC(=N)N)C(=O)N[C@@H](CC(C)C)C(=O)N2C[C@H](O)C[C@H]2C(=O)N(C)[C@@H](CC(C)C)C(=O)N[C@@H](CC(=O)O)C(=O)N[C@@H](CCCNC(=N)N)C(=O)N[C@H](C(N)=O)[C@@H](C)CC)C1 [JAL-1255, Occ-Sni-Phe-arg-Leu-Hyp-Nml-Asp-Arg-Ile-NH2] (HELM PEPTIDE1{[CCCCCCCC(=O)[*:2]].[O=C([C@H]1CCCN([*:1])C1)[*:2]].F.[dR].L.[Hyp].[meL].D.R.I.[am]}$$$$V2.0) | < 1000 nM |
| CCCCCCCC(=O)N[C@H](C)C(=O)N[C@@H](Cc1ccc(Br)cc1)C(=O)N[C@H](CCCNC(=N)N)C(=O)N[C@@H](CC(C)C)C(=O)N1C[C@H](O)C[C@H]1C(=O)N[C@@H](CC(C)C)C(=O)N[C@@H](CC(=O)O)C(=O)N[C@@H](CCCNC(=N)N)C(=O)N[C@H](C(N)=O)[C@@H](C)CC [JAL-1116, Occ-ala-Pbf-arg-Leu-Hyp-Leu-Asp-Arg-Ile-NH2] (HELM PEPTIDE1{[CCCCCCCC(=O)[*:2]].[dA].[O=C([C@H](Cc1ccc(Br)cc1)N[*:1])[*:2]].[dR].L.[Hyp].L.D.R.I.[am]}$$$$V2.0) | < 1000 nM |
| CCCCCCCC(=O)N1CCCC[C@@H]1C(=O)N[C@@H](Cc1ccccc1)C(=O)N[C@H](CC(C)C)C(=O)N[C@@H](CC(C)C)C(=O)N1C[C@H](O)C[C@H]1C(=O)N[C@@H](CC(C)C)C(=O)N[C@@H](CC(=O)O)C(=O)N[C@@H](CCCNC(=N)N)C(=O)N[C@H](C(N)=O)[C@@H](C)CC [JAL-1054, Occ-pip-Phe-leu-Leu-Hyp-Leu-Asp-Arg-Ile-NH2] (HELM PEPTIDE1{[CCCCCCCC(=O)[*:2]].[O=C([C@H]1CCCCN1[*:1])[*:2]].F.[dL].L.[Hyp].L.D.R.I.[am]}$$$$V2.0) | < 1000 nM |
| CCCCCCCC(=O)N1CCC[C@H](C(=O)N[C@@H](Cc2ccccc2)C(=O)NC2(C(=O)N[C@@H](CC(C)C)C(=O)N3C[C@H](N)C[C@H]3C(=O)N(C)[C@@H](CC(C)C)C(=O)N[C@@H](CC(=O)O)C(=O)N[C@@H](CCCNC(=N)N)C(=O)N[C@H](C(N)=O)[C@@H](C)CC)CCNCC2)C1 [JAL-1351, Occ-Sni-Phe-Apc-Leu-Tap-Nml-Asp-Arg-Ile-NH2] (Octanoyl-[X2]F[Api]L[Pro(4R-NH2)][NMeL]DRI-NH2) | < 1000 nM |
| CCCCCCCC(=O)N[C@H](C)C(=O)N[C@@H](Cc1ccccc1)C(=O)N[C@H](CCCC)C(=O)N[C@@H](CC(C)C)C(=O)N1C[C@H](O)C[C@H]1C(=O)N(C)[C@@H](CC(C)C)C(=O)N[C@@H](CC(=O)O)C(=O)N[C@@H](CCCNC(=N)N)C(=O)N[C@H](C(N)=O)[C@@H](C)CC [JAL-1044, Occ-ala-Phe-nle-Leu-Hyp-Nml-Asp-Arg-Ile-NH2] (HELM PEPTIDE1{[CCCCCCCC(=O)[*:2]].[dA].F.[CCCC[C@@H](N[*:1])C(=O)[*:2]].L.[Hyp].[meL].D.R.I.[am]}$$$$V2.0) | < 1000 nM |
| CCCCCCCC(=O)N1CCC[C@H](C(=O)N[C@@H](Cc2ccccc2)C(=O)N[C@H](CCCN)C(=O)N[C@@H](CC(C)C)C(=O)N2C[C@H](O)C[C@H]2C(=O)N(C)[C@@H](CC(C)C)C(=O)N[C@@H](CC(=O)O)C(=O)N[C@@H](CCCNC(=N)N)C(=O)N[C@H](C(N)=O)[C@@H](C)CC)C1 [JAL-1265, Occ-Sni-Phe-orn-Leu-Hyp-Nml-Asp-Arg-Ile-NH2] (Octanoyl-[X2]F[dOrn]L[Hyp][NMeL]DRI-NH2) | < 1000 nM |
| CCCCCCCC(=O)N1CCC[C@H](C(=O)N[C@@H](Cc2ccccc2)C(=O)N[C@H](CC(C)C)C(=O)N[C@@H](CC(C)C)C(=O)N2C[C@H](NCCN)C[C@H]2C(=O)N(C)[C@@H](CC(C)C)C(=O)N[C@@H](CC(=O)O)C(=O)N[C@@H](CCCNC(=N)N)C(=O)N[C@H](C(N)=O)[C@@H](C)CC)C1 [JAL-1371, Occ-Sni-Phe-leu-Leu-Tap(Ae)-Nml-Asp-Arg-Ile-NH2] (Octanoyl-[X2]F[dL]L[X3][NMeL]DRI-NH2) | < 1000 nM |
| CCCCCCCC(=O)N[C@H](C)C(=O)N[C@@H](Cc1ccccc1)C(=O)N[C@H](CC(C)C)C(=O)N[C@@H](CC(C)C)C(=O)N1C[C@H](O)C[C@H]1C(=O)N(C)C(CC(C)(C)C)C(=O)N[C@@H](CC(=O)O)C(=O)N[C@@H](CCCNC(=N)N)C(=O)N[C@H](C(N)=O)[C@@H](C)CC (stereo partly drawn) [JAL-1283, Occ-ala-Phe-leu-Leu-Hyp-(SH-158)-Asp-Arg-Ile-NH2] (HELM PEPTIDE1{[CCCCCCCC(=O)[*:2]].[dA].F.[dL].L.[Hyp].[CN(C(CC(C)(C)C)C(=O)[*:2])[*:1]].D.R.I.[am]}$$$$V2.0) | < 1000 nM |

Next, values leading:

| EC50 | SMILES |
| --- | --- |
| < 1000 nM | CCCCCCCC(=O)N[C@H](C)C(=O)N[C@@H](Cc1ccccc1)C(=O)NC1(C(=O)N[C@@H](CC(C)C)C(=O)N2C[C@H](N)C[C@H]2C(=O)N(C)[C@@H](CC(C)C)C(=O)N[C@@H](CC(=O)O)C(=O)N[C@@H](CCCNC(=N)N)C(=O)N[C@H](C(N)=O)[C@@H](C)CC)CCCCC1 [JAL-1454, Occ-ala-Phe-Egz-Leu-Tap-Nml-Asp-Arg-Ile-NH2] (Octanoyl-[dA]F[Ac6c]L[Pro(4R-NH2)][NMeL]DRI-NH2) |
| < 1000 nM | CCCCCCCC(=O)N1CCC[C@H](C(=O)N[C@@H](Cc2ccccc2)C(=O)N[C@H](CC(C)C)C(=O)N[C@@H](CC(C)C)C(=O)N2C[C@H](O)C[C@H]2C(=O)N(C)[C@@H](CC(C)C)C(=O)N[C@H](C(=O)N[C@@H](CCCNC(=N)N)C(=O)NC2CCCCCC2)[C@@H](C)O)C1 [JAL-1753, Occ-Sni-Phe-leu-Leu-Hyp-Nml-Thr-Arg-Che] (Octanoyl-[X2]F[dL]L[Hyp][NMeL]TR-NHcycloheptyl) |
| < 1000 nM | CCCCCCCC(=O)N[C@H](C)C(=O)N[C@@H](Cc1ccccc1)C(=O)N[C@H](CNCC(C)(C)C)C(=O)N[C@@H](CC(C)C)C(=O)N1C[C@H](N)C[C@H]1C(=O)N(C)[C@@H](CC(C)C)C(=O)N[C@@H](CC(=O)O)C(=O)N[C@@H](CCCNC(=N)N)C(=O)N[C@H](C(N)=O)[C@@H](C)CC [JAL-1463, Occ-ala-Phe-dap(1464)-Leu-Tap-Nml-Asp-Arg-Ile-NH2] (Octanoyl-[dA]F[X12]L[Pro(4R-NH2)][NMeL]DRI-NH2) |
| < 1000 nM | CCCCCCCCN1CCC[C@H](C(=O)N[C@@H](Cc2ccccc2)C(=O)N[C@H](CC(C)C)C(=O)N[C@@H](CC(C)C)C(=O)N2C[C@H](N)C[C@H]2C(=O)N(C)[C@@H](CC(C)C)C(=O)N[C@@H](CC(=O)O)C(=O)N[C@@H](CCCNC(=N)N)C(=O)NC2CCCCCC2)C1 [JAL-1843, Oct-Sni-Phe-leu-Leu-Tap-Nml-Asp-Arg-Che] (X1-F[dL]L[Pro(4R-NH2)][NMeL]DR-NHcycloheptyl) |
| < 1000 nM | CCCCCCCC(=O)N1CCC[C@H](C(=O)N[C@@H](Cc2ccc(Cl)c(Cl)c2)C(=O)N[C@H](CC(C)C)C(=O)N[C@@H](CC(C)C)C(=O)N2C[C@H](O)C[C@H]2C(=O)N(C)[C@@H](CC(C)C)C(=O)N[C@@H](CC(=O)O)C(=O)N2CCC[C@H]2C(=O)NC2CCCCCC2)C1 [JAL-1599, Occ-Sni-Eaa-leu-Leu-Hyp-Nml-Asp-Pro-Che] (Octanoyl-[X2][Phe(3,4-Cl2)][dL]L[Hyp][NMeL]DP-NHcycloheptyl) |
| < 1000 nM | CCCCCCCC(=O)N1CCC[C@H](C(=O)N[C@@H](Cc2ccccc2)C(=O)N[C@H](CCCN(C)C)C(=O)N[C@@H](CC(C)C)C(=O)N2C[C@H](N)C[C@H]2C(=O)N(C)[C@@H](CC(C)C)C(=O)N[C@H](C(=O)N[C@@H](CCCNC(=N)N)C(=O)NC2CCCCCC2)C(C)C)C1 [JAL-1850, Occ-Sni-Phe-orn(Me2)-Leu-Tap-Nml-Val-Arg-Che] (Octanoyl-[X2]F[dOrn(Me2)]L[Pro(4R-NH2)][NMeL]VR-NHcycloheptyl) |
| < 1000 nM | CCCCCCCC(=O)N1CCC[C@H](C(=O)N[C@@H](Cc2cccc(C(F)(F)F)c2)C(=O)N[C@H](CC(C)C)C(=O)N[C@@H](CC(C)C)C(=O)N2C[C@H](O)C[C@H]2C(=O)N(C)[C@@H](CC(C)C)C(=O)N[C@@H](CC(=O)O)C(=O)N[C@@H](CCCNC(=N)N)C(=O)N[C@H](C(N)=O)[C@@H](C)CC)C1 [JAL-1621, Occ-Sni-Mtf-leu-Leu-Hyp-Nml-Asp-Arg-Ile-NH2] (Octanoyl-[X2][Phe(3-CF3)][dL]L[Hyp][NMeL]DRI-NH2) |
| < 1000 nM | CCCCCCCC(=O)N1CCC[C@H](C(=O)N[C@@H](Cc2ccccc2)C(=O)N[C@H](CC(C)C)C(=O)N[C@@H](CC(C)C)C(=O)N2C[C@H](O)C[C@H]2C(=O)N(C)[C@@H](CC(C)C)C(=O)N[C@@H](CC(=O)O)C(=O)N2CCC[C@H]2C(=O)N[C@@H]2CCCC[C@H]2C)C1 [JAL-1510, Occ-Sni-Phe-leu-Leu-Hyp-Nml-Asp-Pro-1860] (Octanoyl-[X2]F[dL]L[Hyp][NMeL]DP-X6) |
